Measured values taken from PubChem BioAssay (NCI).
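In this assay, cells in 96-well plates receive the compound at five concentrations for 48 hours. Endpoints are linearly interpolated between the surrounding concentrations. GI50: concentration for 50% inhibition of growth. TGI marks complete inhibition of growth.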

Experiments:
Assay in all cases: NCI tumour cell line growth inhibition, 48 h
[1] = tested on: SK-MEL-5 melanoma
[2] = tested on: HOP-18 NSCLC
[3] = tested on: KM12 colon
[4] = tested on: HCC-2998 colon
[5] = tested on: K-562 leukemia
[6] = tested on: SF-295 CNS
[7] = tested on: SNB-78 CNS
[8] = tested on: SNB-75 CNS
[9] = tested on: OVCAR-4 ovarian
[10] = tested on: IGROV1 ovarian
[11] = tested on: MALME-3M melanoma
[12] = tested on: COLO 205 colon
[13] = tested on: CCRF-CEM leukemia
[14] = tested on: A498 renal
[15] = tested on: SK-OV-3 ovarian
[16] = tested on: RPMI-8226 leukemia
[17] = tested on: UACC-62 melanoma
[18] = tested on: NCI-H226 lung
[19] = tested on: M19-MEL melanoma
[20] = tested on: HOP-62 NSCLC
[21] = tested on: XF 498 CNS
[22] = tested on: P388/ADR leukemia
[23] = tested on: EKVX NSCLC
[24] = tested on: DMS 114 small cell lung
[25] = tested on: HCT-116 colon
[26] = tested on: KM20L2 colon
[27] = tested on: SNB-19 CNS
[28] = tested on: HL-60(TB) leukemia
[29] = tested on: SK-MEL-2 melanoma
[30] = tested on: HOP-92 NSCLC
[31] = tested on: HT29 colon
[32] = tested on: HCT-15 colon
[33] = tested on: SK-MEL-28 melanoma
[34] = tested on: DMS 273 small cell lung
[35] = tested on: SN12C renal
[36] = tested on: MOLT-4 leukemia
[37] = tested on: MCF7 breast
[38] = tested on: UO-31 renal
[39] = tested on: SN12K1 renal
[40] = tested on: NCI-H23 lung
[41] = tested on: NCI-H522 lung
[42] = tested on: LOX IMVI melanoma
[43] = tested on: CAKI-1 renal
[44] = tested on: SW-620 colon
[45] = tested on: NCI/ADR-RES ovarian
[46] = tested on: OVCAR-5 ovarian
[47] = tested on: NCI-H460 lung
[48] = tested on: UACC-257 melanoma
[49] = tested on: OVCAR-3 ovarian
[50] = tested on: SF-539 CNS
[51] = tested on: A549 NSCLC
[52] = tested on: SF-268 CNS
[53] = tested on: P388 leukemia
[54] = tested on: U251 CNS
[55] = tested on: OVCAR-8 ovarian
[56] = tested on: 786-0 renal
[57] = tested on: ACHN renal
[58] = tested on: TK-10 renal
[59] = tested on: LXFL 529 NSCLC
[60] = tested on: RXF-631 renal
[61] = tested on: M14 melanoma

**Q.** How did the TGI [1] turn out when `[C-]#[O+].[Cl][Sn]([Cl])[Cl].[Cl][Sn]([Cl])[Cl].[Pt].c1cnc2c(c1)ccc1cccnc12` was run?
**A.** Its TGI is 13.4 µM.

**Q.** And the GI50 [2]?
**A.** The GI50 was 6.73 µM.

**Q.** What about the TGI [2] of the same compound?
**A.** Its TGI is greater than 100 µM.

**Q.** And the TGI [3]?
**A.** The TGI was greater than 100 µM.

**Q.** And the TGI [4]?
**A.** The TGI was 13.1 µM.

**Q.** What about the TGI [5] of the same compound?
**A.** The TGI was greater than 48.3 µM.

**Q.** What about the TGI [6] of the same compound?
**A.** The TGI was greater than 36.5 µM.

**Q.** And the GI50 [7]?
**A.** The GI50 was 15.8 µM.

**Q.** What about the TGI [7] of the same compound?
**A.** Its TGI is 66 µM.

**Q.** What about the TGI [8] of the same compound?
**A.** Its TGI is 61.6 µM.

**Q.** And the TGI [9]?
**A.** Its TGI is greater than 27.4 µM.

**Q.** And the TGI [10]?
**A.** Its TGI is 35.7 µM.

**Q.** And the TGI [11]?
**A.** The TGI was greater than 100 µM.

**Q.** What about the TGI [12] of the same compound?
**A.** The TGI was greater than 100 µM.

**Q.** And the TGI [13]?
**A.** The TGI was greater than 29.8 µM.

**Q.** And the TGI [14]?
**A.** The TGI was 13.3 µM.

**Q.** And the TGI [15]?
**A.** The TGI was 27.8 µM.

**Q.** And the TGI [16]?
**A.** The TGI was greater than 65.8 µM.

**Q.** And the TGI [17]?
**A.** Its TGI is greater than 22.4 µM.

**Q.** What about the TGI [18] of the same compound?
**A.** The TGI was greater than 42.4 µM.

**Q.** What about the GI50 [19] of the same compound?
**A.** The GI50 was 3.25 µM.

**Q.** What about the TGI [19] of the same compound?
**A.** The TGI was greater than 31.6 µM.

**Q.** What about the TGI [20] of the same compound?
**A.** Its TGI is 45.3 µM.

**Q.** And the GI50 [21]?
**A.** The GI50 was 9.1 µM.

**Q.** What about the TGI [21] of the same compound?
**A.** The TGI was 44.3 µM.

**Q.** And the GI50 [22]?
**A.** Its GI50 is 1.78 µM.

**Q.** What about the TGI [22] of the same compound?
**A.** The TGI was 5.1 µM.

**Q.** What about the TGI [23] of the same compound?
**A.** The TGI was 44.4 µM.

**Q.** And the GI50 [24]?
**A.** The GI50 was 4.14 µM.

**Q.** And the TGI [24]?
**A.** The TGI was greater than 39.4 µM.

**Q.** What about the TGI [25] of the same compound?
**A.** The TGI was greater than 24.6 µM.

**Q.** What about the GI50 [26] of the same compound?
**A.** Its GI50 is 1.97 µM.

**Q.** And the TGI [26]?
**A.** The TGI was 4.54 µM.

**Q.** What about the TGI [27] of the same compound?
**A.** The TGI was greater than 27.1 µM.

**Q.** What about the TGI [28] of the same compound?
**A.** Its TGI is 7.95 µM.

**Q.** And the TGI [29]?
**A.** Its TGI is 18.6 µM.

**Q.** And the TGI [30]?
**A.** The TGI was 51.5 µM.

**Q.** And the TGI [31]?
**A.** Its TGI is greater than 100 µM.

**Q.** And the TGI [32]?
**A.** Its TGI is greater than 44 µM.

**Q.** And the TGI [33]?
**A.** Its TGI is 46.9 µM.

**Q.** And the GI50 [34]?
**A.** Its GI50 is 2.59 µM.

**Q.** What about the TGI [34] of the same compound?
**A.** Its TGI is 6 µM.

**Q.** What about the TGI [35] of the same compound?
**A.** Its TGI is greater than 61.2 µM.

**Q.** And the TGI [36]?
**A.** The TGI was greater than 30.9 µM.

**Q.** And the TGI [37]?
**A.** The TGI was 56.4 µM.

**Q.** What about the TGI [38] of the same compound?
**A.** The TGI was greater than 33.8 µM.

**Q.** And the GI50 [39]?
**A.** Its GI50 is 3.37 µM.

**Q.** And the TGI [39]?
**A.** Its TGI is 16.7 µM.

**Q.** What about the TGI [40] of the same compound?
**A.** Its TGI is greater than 100 µM.

**Q.** And the TGI [41]?
**A.** Its TGI is greater than 100 µM.

**Q.** And the TGI [42]?
**A.** The TGI was 15.8 µM.

**Q.** And the TGI [43]?
**A.** Its TGI is greater than 100 µM.

**Q.** What about the TGI [44] of the same compound?
**A.** Its TGI is greater than 100 µM.

**Q.** What about the TGI [45] of the same compound?
**A.** Its TGI is 10.1 µM.

**Q.** What about the TGI [46] of the same compound?
**A.** The TGI was greater than 59.5 µM.

**Q.** And the TGI [47]?
**A.** Its TGI is 23.5 µM.

**Q.** And the TGI [48]?
**A.** The TGI was greater than 100 µM.

**Q.** And the TGI [49]?
**A.** The TGI was greater than 69.8 µM.

**Q.** And the TGI [50]?
**A.** Its TGI is 16.6 µM.

**Q.** What about the TGI [51] of the same compound?
**A.** Its TGI is greater than 100 µM.

**Q.** What about the TGI [52] of the same compound?
**A.** The TGI was greater than 79 µM.

**Q.** And the GI50 [53]?
**A.** The GI50 was 2.12 µM.

**Q.** What about the TGI [53] of the same compound?
**A.** Its TGI is 5.68 µM.

**Q.** And the TGI [54]?
**A.** The TGI was 15 µM.

**Q.** What about the TGI [55] of the same compound?
**A.** The TGI was greater than 100 µM.

**Q.** Which results are given for `O=c1c2ccccc2nc(-c2cccc(Cl)c2)n1NC1OC(CO)C(O)C(O)C1O` (stereo not given)?
**A.** TGI [1]: > 100 µM; TGI [2]: > 100 µM; TGI [3]: > 100 µM; TGI [4]: > 100 µM; TGI [5]: > 100 µM; TGI [6]: > 100 µM; TGI [56]: > 100 µM; TGI [7]: > 100 µM; TGI [8]: > 100 µM; TGI [9]: > 100 µM; TGI [10]: > 100 µM; TGI [11]: > 100 µM; TGI [12]: > 100 µM; TGI [13]: > 100 µM; TGI [14]: > 100 µM; TGI [15]: > 100 µM; TGI [16]: > 100 µM; TGI [17]: > 100 µM; TGI [18]: > 100 µM; TGI [19]: > 100 µM; TGI [20]: > 100 µM; TGI [21]: > 100 µM; TGI [23]: > 100 µM; TGI [24]: > 100 µM; TGI [25]: > 100 µM; TGI [26]: > 100 µM; TGI [27]: > 100 µM; TGI [28]: > 100 µM; TGI [29]: > 100 µM; TGI [30]: > 100 µM; TGI [31]: > 100 µM; TGI [57]: > 100 µM; TGI [32]: > 100 µM; TGI [58]: > 100 µM; TGI [33]: > 100 µM; TGI [34]: > 100 µM; TGI [35]: > 100 µM; TGI [36]: > 100 µM; TGI [38]: > 100 µM; TGI [40]: > 100 µM; TGI [41]: > 100 µM; TGI [43]: > 100 µM; TGI [44]: > 100 µM; TGI [59]: > 100 µM; TGI [46]: > 100 µM; TGI [47]: > 100 µM; TGI [60]: > 100 µM; TGI [48]: > 100 µM; TGI [49]: > 100 µM; TGI [50]: > 100 µM; TGI [51]: > 100 µM; TGI [52]: > 100 µM; TGI [61]: > 100 µM; TGI [54]: > 100 µM; TGI [55]: > 100 µM
